{"source": "patent US9034862B2", "about": "“Compositions and methods for the treatment of cancer” (priority 2011, dated 2015)", "key": {"[1]": {"test_system": "Normal lung fibroblasts (MRC5) and cancerous lung (A549) cells", "assay": "Selective killing of cancer cells, MRC5 vs A549 (MTT)", "type": "cell-based, human", "settings": "72 h", "procedure": "(§1) Solutions of the platinum compounds were freshly prepared in sterile PBS before use and their concentrations quantitated by atomic absorption spectroscopy. […] The cells were then treated with 20 μL of 3-(4,5-dimethylthiazol-2-yl)-2,5-diphenyltetrazolium bromide (MTT) (5 mg/mL in PBS) and incubated for 4 h. The medium was removed, 100 μL of DMSO was added to the cells, and the absorbance of the purple formazan was recorded at 560 nm using a BioTek Synergy HT multi-detection microplate plate reader. Each condition was performed in triplicate and three independent experiments were carried out for each cell line."}, "[2]": {"test_system": "NTera2", "assay": "MTT assay, NTera2", "type": "cell-based, human", "settings": "Table 3, NTera2 Testis, 72-h incubation", "method": "(§6) Solutions of the platinum compounds were freshly prepared in sterile PBS before use and their concentrations quantitated by atomic absorption spectroscopy. Cells were seeded on a 96-well plate (1200 cells per well for cancer cells and 1800 cells per well for the normal lung fibroblasts) in 100 μL RPMI or DMEM media, and incubated for 24 h. […] The cells were then treated with 20 μL of 3-(4,5-dimethylthiazol-2-yl)-2,5-diphenyltetrazolium bromide (MTT) (5 mg/mL in PBS) and incubated for 4 h. The medium was removed, 100 μL of DMSO was added to the cells, and the absorbance of the purple formazan was recorded at 560 nm using a BioTek Synergy HT multi-detection microplate plate reader. Each condition was performed in triplicate and three independent experiments were carried out for each cell line."}, "[3]": {"test_system": "pGLuc plasmid", "assay": "Platination of pGLuc plasmid", "type": "biochemical", "method": "The resulting mixtures were dialyzed (molecular weight cut-off 3.5 kDa) against ddH2O overnight at 4° C. with five changes of ddH2O. The rb values (bound Pt/nucleotide) were determined by UV/Vis and atomic absorption spectroscopy.\nIn one embodiment, the ratio of bound platinum per plasmid was determined by measuring the Pt concentration by atomic absorption spectroscopy and the DNA concentration by UV/Vis spectroscopy."}, "[4]": {"test_system": "GLuc expression in A549 cells", "assay": "Transcription assay, globally platinated pGLuc, A549", "type": "cell-based, human", "settings": "for transcription level (normalized against unplatinated plasmid): Pt/DNA ratio of […] for phenanthriplatin", "procedure": "(§2) Transfection of transcription probes into A549 and HT29 cells with the pGLuc plasmid was carried out using liposomal transfecting agents. Determination of expression levels was tested by Luciferase assays monitored by a luminometer (J. Am. Chem. Soc. 2010, 132, 7429-7435). A549 cells were plated in 96-well plates at 2,000 cells/well and HT29 cells were plated in 96-well plates at 6,000 cells/well. After 48 h incubation (at ˜30% confluence), cells were transfected with 50 ng of platinated plasmids in 25 μL Opti-MEM and 0.125 μL Lipofectamine 2000, and subsequently 50 μL of antibiotics-free DMEM supplemented with 10% FBS. After 2 h, the cells were washed with medium and 100 μL of fresh medium was added. The experiment was carried out in quadruplicate.\n(§3) GLuc activity was monitored using a luminescence plate reader (Synergy 2, BioTek, Winooski, Vt., USA). A 10 μL volume of medium at different time points (12, 24, 36, 48, 60 h) was transferred into opaque white 96-well plates, and 25 μL of GLuc assay solution (10 μM colelenterazine (NanoLight Technologies, Pinetop, Ariz., USA) in 2.5 mM acidified methanol (100 mM HCl), buffer (10 mM Tris-HCl pH 7.8, 1 mM EDTA, 0.6 M NaCl)) was added by the automatic injector of the instrument.\n(§4) In another embodiment, A549 or HT29 cells were transfected using the platinated transcription probes, and transcription levels were investigated by determining GLuc expression as measured by […] following addition of coelenterazine as a substrate for the exported enzyme. The emission intensities were normalized against unplatinated plasmids as a control. Transcription profiles were obtained by plotting normalized levels of GLuc expression against platination levels (Pt/plasmid ratio) at five different time points. […] An increase in D0 value at different time points represents restoration of transcription."}, "[5]": {"test_system": "calf thymus DNA", "assay": "Ethidium bromide DNA-binding competition, Scatchard analysis", "set-up": "key: competitive (type A); non-competitive (type D); both (type B); No inhibition of ethidium binding is labeled as type C", "from_the_text": "Using this approach, it is possible to determine whether the inhibition of ethidium binding is competitive (type A), non-competitive (type D), or both (type B). No inhibition of ethidium binding is labeled as type C."}, "[6]": {"test_system": "GLuc expression in HT29 cells", "assay": "Transcription assay, globally platinated pGLuc, HT29", "type": "cell-based, human", "settings": "for transcription level (normalized against unplatinated plasmid): Pt/DNA ratio of […] for phenanthriplatin", "procedure": "as §2, §3, §4"}, "[7]": {"test_system": "normal lung fibroblast MRC5", "assay": "MTT assay, MRC5", "type": "cell-based, human", "procedure": "(§5) Human colon carcinoma HT29, human breast carcinoma MCF7, human bone sarcoma U2OS, human prostate carcinoma PC3, and human cervix carcinoma HeLa cells were obtained from the ATCC. A2780/CP70 cisplatin-resistant human ovarian cancer cells were kindly provided by Dr. Stephen B. Howell (Moores UCSD Cancer Center) and the human lung carcinoma cell lines A549 and normal lung fibroblast MRC5 by David E. Root (Whitehead Institute for Biomedical Research). Cells were incubated at 37° C. in 5% CO2 and grown in RPMI (HT29, A2780/CP70, and PC3) or DMEM (A549, MRC5, HeLa, MCF7, and U2OS) medium supplemented with 10% fetal bovine serum and 1% penicillin/streptomycin. Cells were passed every 3 to 4 days and restarted from a frozen stock upon reaching pass number 20.\nas §1"}, "[8]": {"test_system": "Human colon carcinoma HT29", "assay": "MTT assay, HT29", "type": "cell-based", "procedure": "as §5, §1"}, "[9]": {"test_system": "human bone sarcoma U2OS", "assay": "MTT assay, U2OS", "type": "cell-based", "settings": "72-h incubation", "procedure": "as §5, §1"}, "[10]": {"test_system": "human cervix carcinoma HeLa cells", "assay": "MTT assay, HeLa", "type": "cell-based", "method": "as §6\n(§7) Human prostate carcinoma (PC3) and human cervix carcinoma (HeLa) cells were obtained from the ATCC. The human lung carcinoma cell line A549 was kindly provided by David E. Root (Whitehead Institute for Biomedical Research). Cells were incubated at 37° C. in 5% CO2 and grown in RPMI (PC3) or DMEM (A549 and HeLa) medium supplemented with 10% fetal bovine serum and 1% penicillin/streptomycin. Cells were passaged every 3 to 4 days and restarted from the frozen stock upon reaching passage number 20.\n(§8) Solutions of the platinum agents were freshly prepared in sterile PBS before use and the platinum content was quantitated by AAS. Cells were seeded on 96 well plates (1200 cells per well) in 100 μL RPMI or DMEM media\\ and incubated for 24 hours. […] The cells were then treated with 20 μL of 3-(4,5-dimethylthiazol-2-yl)-2,5-diphenyltetrazolium bromide (MTT) (5 mg/mL in PBS) and incubated for 4 h. The medium was removed, 100 μL of DMSO were added to the cells, and the absorbance of the purple formazan was recorded at 570 nm using a BioTek Synergy HT multi-detection microplate plate reader. For each cell line, three independent experiments were carried out in triplicate."}, "[11]": {"test_system": "human prostate carcinoma PC3", "assay": "MTT assay, PC3", "type": "cell-based", "method": "as §6, §7, §8"}, "[12]": {"test_system": "human lung carcinoma A549", "assay": "MTT assay, A549", "type": "cell-based", "method": "as §6, §7, §8"}, "[13]": {"test_system": "human breast carcinoma MCF7", "assay": "MTT assay, MCF7", "type": "cell-based", "settings": "Table 3, MCF7 Breast, 72-h incubation", "procedure": "as §5, §1"}}}
{"smiles": "N.N.[Cl][Pt][Cl]", "note": "[cisplatin]", "values": [{"measurement": "ratio of IC50 values in healthy MRC5 cells to those in cancerous A549 cells", "setting": "[1]", "result": 0.9}, {"measurement": "IC50", "setting": "[2]", "result": "0.14 ± 0.03", "unit": "µM"}, {"measurement": "Pt adducts per plasmid", "setting": "[3]; rf 0.00074, 16 h at 37° C.", "result": 4.64, "unit": "Pt adducts per plasmid"}, {"measurement": "rb (bound Pt/nucleotide)", "setting": "[3]; rf 0.00074, 16 h at 37° C.", "result": 0.0006}, {"measurement": "Pt adducts per plasmid", "setting": "[3]; rf 0.0014, 16 h at 37° C.", "result": 11.67, "unit": "Pt adducts per plasmid"}, {"measurement": "rb (bound Pt/nucleotide)", "setting": "[3]; rf 0.0014, 16 h at 37° C.", "result": 0.0015}, {"measurement": "Pt adducts per plasmid", "setting": "[3]; rf 0.0028, 16 h at 37° C.", "result": 20.65, "unit": "Pt adducts per plasmid"}, {"measurement": "rb (bound Pt/nucleotide)", "setting": "[3]; rf 0.0028, 16 h at 37° C.", "result": 0.0026}, {"measurement": "Pt adducts per plasmid", "setting": "[3]; rf 0.0056, 16 h at 37° C.", "result": 43.35, "unit": "Pt adducts per plasmid"}, {"measurement": "rb (bound Pt/nucleotide)", "setting": "[3]; rf 0.0056, 16 h at 37° C.", "result": 0.0054}, {"measurement": "transcription level (normalized against unplatinated plasmid)", "setting": "[4]; A549, 12 h", "result": 25.8, "unit": "%"}, {"measurement": "D0 (Pt lesions per plasmid required to reduce transcription levels to 37% of control)", "setting": "[4]; A549, 12 h after transfection", "result": 16.8, "unit": "Pt/plasmid"}, {"measurement": "D0 (Pt lesions per plasmid required to reduce transcription levels to 37% of control)", "setting": "[4]; A549, 24 h after transfection", "result": 20.0, "unit": "Pt/plasmid"}, {"measurement": "D0 (Pt lesions per plasmid required to reduce transcription levels to 37% of control)", "setting": "[4]; A549, 36 h after transfection", "result": 29.5, "unit": "Pt/plasmid"}, {"measurement": "D0 (Pt lesions per plasmid required to reduce transcription levels to 37% of control)", "setting": "[4]; A549, 48 h after transfection", "result": 36.4, "unit": "Pt/plasmid"}, {"measurement": "transcription level (normalized against unplatinated plasmid)", "setting": "[4]; A549, 60 h", "result": 60.2, "unit": "%"}, {"measurement": "D0 (Pt lesions per plasmid required to reduce transcription levels to 37% of control)", "setting": "[4]; A549, 60 h after transfection", "result": 42.6, "unit": "Pt/plasmid"}, {"measurement": "type of inhibition of ethidium binding (Scatchard)", "setting": "[5]; 12-h incubation period", "result": "type C"}, {"measurement": "type of inhibition of ethidium binding (Scatchard)", "setting": "[5]; 1 min incubation period", "result": "type C"}, {"measurement": "transcription level (normalized against unplatinated plasmid)", "setting": "[6]; HT29, 12 h", "result": 15.6, "unit": "%"}, {"measurement": "D0 (Pt lesions per plasmid required to reduce transcription levels to 37% of control)", "setting": "[6]; HT29, 12 h after transfection", "result": 9.9, "unit": "Pt/plasmid"}, {"measurement": "D0 (Pt lesions per plasmid required to reduce transcription levels to 37% of control)", "setting": "[6]; HT29, 24 h after transfection", "result": 14.5, "unit": "Pt/plasmid"}, {"measurement": "D0 (Pt lesions per plasmid required to reduce transcription levels to 37% of control)", "setting": "[6]; HT29, 36 h after transfection", "result": 19.2, "unit": "Pt/plasmid"}, {"measurement": "D0 (Pt lesions per plasmid required to reduce transcription levels to 37% of control)", "setting": "[6]; HT29, 48 h after transfection", "result": 22.1, "unit": "Pt/plasmid"}, {"measurement": "transcription level (normalized against unplatinated plasmid)", "setting": "[6]; HT29, 60 h", "result": 42.9, "unit": "%"}, {"measurement": "D0 (Pt lesions per plasmid required to reduce transcription levels to 37% of control)", "setting": "[6]; HT29, 60 h after transfection", "result": 30.0, "unit": "Pt/plasmid"}, {"measurement": "IC50", "setting": "[7]; Table 4, MRC5 normal lung fibroblast, 72 h incubation", "result": "6.18 ± 0.16", "unit": "µM"}, {"measurement": "IC50", "setting": "[7]; Table 5, MRC5, 72-h incubation", "result": "6.18 ± 0.16", "unit": "µM"}, {"measurement": "IC50", "setting": "[8]; Table 3, HT29 Colorectal, 72-h incubation", "result": "15.9 ± 1.5", "unit": "µM"}, {"measurement": "IC50", "setting": "[8]; Table 5, HT29, 72-h incubation", "result": "15.9 ± 1.5", "unit": "µM"}, {"measurement": "IC50", "setting": "[9]; Table 3, U2OS Bone", "result": "7.15 ± 0.25", "unit": "µM"}, {"measurement": "IC50", "setting": "[9]; Table 5, U2OS", "result": "7.15 ± 0.25", "unit": "µM"}, {"measurement": "IC50", "setting": "[10]; Table 3, HeLa Cervix, 72-h incubation", "result": "1.77 ± 0.72", "unit": "µM"}, {"measurement": "IC50", "setting": "[10]; Table 5, HeLa, 72-h incubation", "result": "1.77 ± 0.72", "unit": "µM"}, {"measurement": "IC50", "setting": "[10]; Table 11 (Example 3), HeLa Cervix, 72 h", "result": "1.78 ± 0.15", "unit": "µM"}, {"measurement": "IC50", "setting": "[11]; Table 3, PC3 Prostate, 72-h incubation", "result": "4.56 ± 0.52", "unit": "µM"}, {"measurement": "IC50", "setting": "[11]; Table 11 (Example 3), PC3 Prostate, 72 h", "result": "3.93 ± 0.52", "unit": "µM"}, {"measurement": "IC50", "setting": "[12]; Table 3, A549 Lung, 72-h incubation", "result": "6.75 ± 0.38", "unit": "µM"}, {"measurement": "IC50", "setting": "[12]; Table 4, A549 human lung carcinoma, 72 h incubation", "result": "6.62 ± 0.4", "unit": "µM"}, {"measurement": "IC50", "setting": "[12]; Table 5, A549, 72-h incubation", "result": "6.75 ± 0.38", "unit": "µM"}, {"measurement": "IC50", "setting": "[12]; Table 11 (Example 3), A549 Lung, 72 h", "result": "6.47 ± 0.74", "unit": "µM"}, {"measurement": "IC50", "setting": "[13]", "result": "11.6 ± 0.6", "unit": "µM"}]}
